Data taken from article PMC6081875 (EJNMMI Research, 2018).

What was measured:
bone marrow = experiment: Bone marrow dosimetry, reference protocol (RP): sequential whole-body planar and quantitative SPECT images plus blood samples, organ-level S values; format: in vivo
Protocol: (§1) Data for dosimetry were acquired during a routine 4-day in-patient stay following the radiopharmaceutical injection, in conjunction with standard clinical examinations. All patients received a 15-min one-bed abdominal SPECT scan and a 20-min whole-body planar scintigraphy at 24, 48, and 72 h post-injection (p. i.) on a dual-headed Symbia T2 SPECT/CT (Siemens Medical Solutions, Erlangen, Germany). Counts were detected for the photopeak window of 208 keV (width 15%) by the usage of a medium-energy low-penetration collimator. Two additional scatter windows were measured at 170 keV (width 15%) and 240 keV (width 10%). A low-dose AC-CT was acquired at the first image acquisition session for anatomical correlation and attenuation correction during quantitative SPECT reconstruction. For the determination of the absorbed dose to the bone marrow from the activity circulating in the blood, five venous blood samples were drawn from the site contralateral to injection at 30 and 80 min p. i. and 24, 48, and 72 h p. i..
Quantitative SPECT images were reconstructed as described by Delker et al. via a rotation-based, penalised, one-step-late ordered subset expectation maximisation algorithm, which included corrections for scatter, attenuation, and distance-dependent geometrical collimator blur. Attenuation correction was performed for each SPECT scan via the AC-CT, which was acquired along with the SPECT scan 24 h post-injection. To apply the attenuation correction, especially to the SPECT scans 48 and 72 h p. i., the single AC-CT was co-registered onto an initial SPECT reconstruction without attenuation correction by using a rigid body co-registration algorithm with six degrees of freedom (PMOD Version 3.609, PMOD Technologies, Zurich, Switzerland). If only one AC-CT is acquired for sequential SPECT imaging, special care has to be taken to minimise misregistration between SPECT images and separately acquired CT scans, as such a misalignment can distort the proper attenuation correction and, thus, activity quantification. This is in principal also true for serial SPECT and CT imaging, as even within a single image acquisition session patient movements cannot be entirely avoided. Scatter correction employed the triple energy window (TEW) method. Correction for distance-dependent collimator blur made use of a Gaussian blur model. Corrections for partial volume effects and dead time were not applied. For conversion of the measured counts per second and per voxel to Becquerel per millilitre, an appropriate calibration factor was determined. Therefore, we used a large cylinder of approximately 20 cm diameter, which was filled with a known activity concentration and which has been imaged and reconstructed via the same protocol.
For each patient, all acquired whole-body planar images were corrected for scatter and attenuation on a pixel basis via a dedicated MATLAB routine (Fig. 1); for the correction of scatter, the TEW method was applied, as for the quantitative SPECT images. For the attenuation correction, a linear projection of μ values along the ventral axis of the patient was created from the diagnostic CT image of the pre-therapeutic Ga-68 PET/CT scan, which covered nearly the whole patient body from the middle of the head to approximately the knees. Therefore, a conversion between the Hounsfield units (HUs) in the diagnostic CT and the μ values at 208 keV was established by acquiring a CT scan of a Gammex tissue phantom (Gammex 467; Gammex, Inc., Middleton, WI) with 16 tissue rods of known composition and thus known attenuation characteristics. The μ values of all rods were plotted against the measured HUs, and a bilinear fit model (range 1: HU = (− 688;0); range 2: HU = (0;1127)) was applied to the whole data set. This calibration curve allows for the assignment of μ values to a continuous range of HUs. […]

[1] = Whole-body effective half-life from sequential whole-body planar images (mono-exponential fit); format: in vivo, human; settings: mono-exponential fit, 24, 48, 72 h p. i.
Protocol: as §1
For each patient, all acquired whole-body planar images were corrected for scatter and attenuation on a pixel basis via a dedicated MATLAB routine (Fig. 1); for the correction of scatter, the TEW method was applied, as for the quantitative SPECT images. For the attenuation correction, a linear projection of μ values along the ventral axis of the patient was created from the diagnostic CT image of the pre-therapeutic Ga-68 PET/CT scan, which covered nearly the whole patient body from the middle of the head to approximately the knees. Therefore, a conversion between the Hounsfield units (HUs) in the diagnostic CT and the μ values at 208 keV was established by acquiring a CT scan of a Gammex tissue phantom (Gammex 467; Gammex, Inc., Middleton, WI) with 16 tissue rods of known composition and thus known attenuation characteristics. The μ values of all rods were plotted against the measured HUs, and a bilinear fit model (range 1: HU = (− 688;0); range 2: HU = (0;1127)) was applied to the whole data set. This calibration curve allows for the assignment of μ values to a continuous range of HUs. The lower arms and legs as well as a part of the head were not included in the PET/CT data, as the arms are usually positioned above the head during the PET/CT scan and as the PET/CT scan is usually not acquired over the entire patient length. By contrast, the arms, legs, and head are fully included in the whole-body planar images, and an appropriate μ value has to be defined for each segment (Fig. 1). Thus, mean μ values derived from three patients with PET/CT acquisitions of the head, legs, and arms were assigned to the missing segments. Therefore, all segments—the part visible on the PET/CT and the missing parts of the head, arms, and legs—were delineated on the co-registered whole-body planar images (delineation and rigid body co-registration via PMOD Version 3.609). The resulting map of the regions of interest (ROI) was saved, with each ROI segment being characterised via a defined value. This ROI map was then loaded by a self-designed MATLAB routine, which assigned the defined μ value to each segment according to the ROI number. Afterwards, the resulting whole-body integral μ-map was blurred via a Gaussian filter with a width approximating an average resolution of the gamma camera (geometric resolution of full width at half maximum of 11 mm at 10 cm). Pixel-wise attenuation correction was finally performed in conjunction with geometric averaging of both planar views (conjugate view method).
Calibration of whole-body planar images was performed via the corresponding quantitative abdominal SPECT by using the fact that ideally the total activity ASPECT within the quantitative SPECT should be correlated to the number of counts per second (cps) xplanar in the planar abdominal counterpart multiplied by an appropriate calibration factor: […]

[2] = median of n = 5 patients per therapy, approx. 7.4 GBq Lu-177-Octreotate (NET) or 3.7 GBq Lu-177-PSMA-617 (mCRPC)
[3] = median of n = 5 patients per therapy

For `C[C@@H](O)[C@H](NC(=O)[C@@H]1CSSC[C@H](NC(=O)[C@@H](Cc2ccccc2)NC(=O)CN2CCN(CC(=O)O)CCN(CC(=O)O)CCN(CC(=O)O)CC2)C(=O)N[C@@H](Cc2ccc(O)cc2)C(=O)N[C@H](Cc2c[nH]c3ccccc23)C(=O)N[C@@H](CCCCN)C(=O)N[C@@H]([C@@H](C)O)C(=O)N1)C(=O)O` [Lu-177-Octreotate, Lu-177-[DOTA^0,Tyr^3]-Octreotate, metal not drawn], the “DBM ← total, total bone marrow absorbed dose, RP” value (from here on “DBM ← total”) (bone marrow; [2]) was 12.1 mGy/GBq, the “DBM ← total” value (bone marrow; patient P1 (NET, 7654 MBq)) was 12.1 mGy/GBq and the “DBM ← total” value (bone marrow; patient P2 (NET, 7425 MBq)) was 9.6 mGy/GBq. For the same molecule, the “DBM ← total” value (bone marrow; patient P3 (NET, 7420 MBq)) was 15.6 mGy/GBq, the “DBM ← total” value (bone marrow; patient P4 (NET, 7409 MBq)) was 11.8 mGy/GBq and the “DBM ← total” value (bone marrow; patient P5 (NET, 7410 MBq)) was 12.7 mGy/GBq. The “T1/2, WB, planar-based whole-body effective half-life” value (“T1/2, WB” below) [1, 3] was 43 h, the “T1/2, WB” value ([1]; patient P1 (NET)) was 40 h and the “T1/2, WB” value ([1]; patient P2 (NET)) was 43 h. The “T1/2, WB” value ([1]; patient P3 (NET)) was 43 h, the “T1/2, WB” value ([1]; patient P4 (NET)) was 52 h and the “T1/2, WB” value ([1]; patient P5 (NET)) was 62 h.

For `O=C(O)CC[C@H](NC(=O)N[C@@H](CCCCNC(=O)[C@H](Cc1ccc2ccccc2c1)NC(=O)[C@H]1CC[C@H](CNC(=O)CN2CCN(CC(=O)O)CCN(CC(=O)O)CCN(CC(=O)O)CC2)CC1)C(=O)O)C(=O)O` [Lu-177-PSMA-617, Lu-177-DKFZ-PSMA-617, metal not drawn], the “DBM ← total” value (bone marrow; [2]) was 10.2 mGy/GBq, the “DBM ← total” value (bone marrow; patient P6 (mCRPC, 3718 MBq)) was 10.2 mGy/GBq and the “DBM ← total” value (bone marrow; patient P7 (mCRPC, 3743 MBq)) was 6.7 mGy/GBq. For the same molecule, the “DBM ← total” value (bone marrow; patient P8 (mCRPC, 3745 MBq)) was 16.8 mGy/GBq, the “DBM ← total” value (bone marrow; patient P9 (mCRPC, 3752 MBq)) was 14.2 mGy/GBq and the “DBM ← total” value (bone marrow; patient P10 (mCRPC, 3700 MBq)) was 8.3 mGy/GBq. The “T1/2, WB” value [1, 3] was 31 h, the “T1/2, WB” value ([1]; patient P6 (mCRPC)) was 22 h and the “T1/2, WB” value ([1]; patient P7 (mCRPC)) was 31 h. For the same molecule, the “T1/2, WB” value ([1]; patient P8 (mCRPC)) was 65 h, the “T1/2, WB” value ([1]; patient P9 (mCRPC)) was 39 h and the “T1/2, WB” value ([1]; patient P10 (mCRPC)) was 29 h.
